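Five concentrations, 48 hours, 96-well plates. GI50 marks 50% less growth.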 Active and inactive are the calls of the source. Cut-off read from the data, not from the text of the source: active = GI50 up to about 1.1 µM and inactive = higher.

Test systems include DU-145; IGROV-1; NCI-H23; MOLT-4; U-251; OVCAR-5; 786-0; UO-31; T47D; M14; NCI/ADR-RES; LOX IMVI; MDA-MB-435; HL-60; SF-295; UACC-62; HCC 2998; Malme-3M; RPMI-8226.
Common to all, as to assay: NCI tumour cell line growth inhibition, 48 h

For the compound `CCN1C(NCCO)=NS(=O)(=O)c2ccccc21`, the GI50 with DU-145, in the assay with IGROV-1, in the assay on NCI-H23, in the assay on MOLT-4, in the assay on U-251 and in the assay on OVCAR-5 was > 100 µM (inactive) throughout. The GI50 in the assay on 786-0, in the assay with UO-31, in the assay with T47D, in the assay with M14, with NCI/ADR-RES and in the assay on LOX IMVI was > 100 µM (inactive) throughout. Besides, the GI50 in the assay with MDA-MB-435, with HL-60, in the assay with SF-295, in the assay on UACC-62 and in the assay on HCC 2998 was > 100 µM (inactive) in each case.
For `Cc1cc(C)nc(NC(=S)Nc2ccc(Cl)cc2)c1`, the GI50 in the assay with DU-145 is > 100 µM (inactive); in the assay with IGROV-1 it was 65.8 µM (inactive); in the assay with MOLT-4, > 100 µM (inactive); in the assay on U-251 it was 35.9 µM (inactive); with OVCAR-5, 29.2 µM (inactive); with 786-0, 22.5 µM (inactive). Moreover, the GI50 is > 100 µM (inactive) in the assay on UO-31; > 100 µM (inactive) with T47D; > 100 µM (inactive) in the assay with M14; 34.8 µM (inactive) in the assay on Malme-3M; 29.2 µM (inactive) in the assay with NCI/ADR-RES; > 100 µM (inactive) in the assay with LOX IMVI. Further, the GI50 in the assay on MDA-MB-435 was > 100 µM (inactive); in the assay with HL-60, > 100 µM (inactive); in the assay with RPMI-8226, > 100 µM (inactive); in the assay on SF-295 it was 43.1 µM (inactive); in the assay on UACC-62 it was > 100 µM (inactive).
For `CC(=O)N[C@@H](Cc1ccc(O)cn1)C(=O)NC1CCCCC1`, the GI50 in the assay with DU-145, in the assay on IGROV-1, in the assay on NCI-H23, in the assay with MOLT-4, in the assay with U-251 and in the assay on OVCAR-5 was > 100 µM (inactive) in each case. The GI50 with 786-0, with UO-31, in the assay with T47D, in the assay with M14, with NCI/ADR-RES and with LOX IMVI was > 100 µM (inactive) in each case. In addition, the GI50 with MDA-MB-435, in the assay on RPMI-8226, in the assay with SF-295, in the assay on UACC-62 and in the assay with HCC 2998 was > 100 µM (inactive) in each case.
Regarding `OC(CCN1CCN(CCOC(c2ccccc2)c2ccccc2)CC1)c1ccccc1` (centres undefined), the GI50 in the assay on DU-145 is 39.7 µM (inactive); with IGROV-1, 23.1 µM (inactive); in the assay on NCI-H23, 24.7 µM (inactive); in the assay on U-251, 16.3 µM (inactive); with OVCAR-5, 33.2 µM (inactive); with 786-0, 18 µM (inactive). Moreover, the GI50 in the assay with UO-31 is 24.7 µM (inactive); in the assay with T47D it was 17.2 µM (inactive); in the assay on M14, 18.1 µM (inactive); in the assay on Malme-3M, 17.5 µM (inactive); in the assay on NCI/ADR-RES, 21.5 µM (inactive); in the assay on LOX IMVI it was 19 µM (inactive). For the same compound, the GI50 is 18.5 µM (inactive) in the assay with MDA-MB-435; 16.7 µM (inactive) in the assay on HL-60; 20.1 µM (inactive) in the assay on SF-295; 11.5 µM (inactive) in the assay on UACC-62; 14.8 µM (inactive) in the assay on HCC 2998.
With `CN(C)/C=C/c1nnc([N+](=O)[O-])s1`, the GI50 was 15.2 µM (inactive) in the assay with DU-145; 19.3 µM (inactive) with NCI-H23; 17.7 µM (inactive) in the assay with U-251; 11.3 µM (inactive) with 786-0; 15.3 µM (inactive) in the assay with UO-31; 15.3 µM (inactive) in the assay on T47D. Further, the GI50 was 14.6 µM (inactive) in the assay with M14; 4.22 µM (inactive) in the assay on Malme-3M; 16.5 µM (inactive) in the assay with NCI/ADR-RES; 2.69 µM (inactive) in the assay with LOX IMVI; 3.69 µM (inactive) with MDA-MB-435; < 0.01 µM (active) in the assay on RPMI-8226. In addition, the GI50 in the assay on SF-295 is 13.8 µM (inactive); in the assay with UACC-62, 16.4 µM (inactive); in the assay with HCC 2998 it was 17.3 µM (inactive).
Consider `C=CCCCC1SC2=C(CC)CCCN2C1=O` (centres undefined), for which the GI50 in the assay on DU-145 was > 100 µM (inactive); in the assay on IGROV-1, > 100 µM (inactive); with NCI-H23, 49.1 µM (inactive); in the assay with MOLT-4, 56.8 µM (inactive); in the assay with U-251, 85.1 µM (inactive); in the assay on OVCAR-5, > 100 µM (inactive). Moreover, the GI50 in the assay with 786-0 is > 100 µM (inactive); in the assay with UO-31 it was 67.5 µM (inactive); in the assay on T47D, 32.5 µM (inactive); in the assay with M14, > 100 µM (inactive); in the assay with Malme-3M it was 48.5 µM (inactive); with NCI/ADR-RES it was 31.6 µM (inactive). Besides, the GI50 in the assay with LOX IMVI was 89.7 µM (inactive); in the assay on MDA-MB-435 it was 84.3 µM (inactive); in the assay with HL-60 it was 34.4 µM (inactive); in the assay on RPMI-8226, 38.2 µM (inactive); with SF-295, 64 µM (inactive); in the assay with UACC-62 it was 81.3 µM (inactive).
As for `CCOC(=O)/C=C(\C(=O)OCC)n1ccc(=O)n(CC(=O)OCC)c1=O`, the GI50 in the assay on DU-145 was 17.3 µM (inactive); with IGROV-1, 6.82 µM (inactive); in the assay with NCI-H23 it was 8.07 µM (inactive); in the assay with MOLT-4, 1.43 µM (inactive); with U-251 it was 6.25 µM (inactive); in the assay on OVCAR-5, 4.95 µM (inactive). The GI50 in the assay with 786-0 is 1.82 µM (inactive); in the assay with UO-31, 6.73 µM (inactive); in the assay on T47D it was 2.44 µM (inactive); in the assay on M14 it was 2.09 µM (inactive); with Malme-3M it was 2.48 µM (inactive); with NCI/ADR-RES it was 9.57 µM (inactive). Further, the GI50 is 2.11 µM (inactive) in the assay with LOX IMVI; 5.85 µM (inactive) with MDA-MB-435; 0.495 µM (active) in the assay with HL-60; 17.9 µM (inactive) in the assay on SF-295; 7.36 µM (inactive) in the assay on UACC-62; 16 µM (inactive) with HCC 2998.
Consider `COC(=O)[C@H](Cc1ccccc1)NC(=O)N(CCC#N)CCCCN(CCC#N)C(=O)N[C@@H](Cc1ccccc1)C(=O)OC`, for which the GI50 with DU-145, in the assay with NCI-H23, with MOLT-4, in the assay with U-251, with OVCAR-5 and in the assay with 786-0 was > 100 µM (inactive) throughout. Besides, the GI50 with UO-31, in the assay with T47D, in the assay on M14, in the assay with Malme-3M, with NCI/ADR-RES and in the assay on LOX IMVI was > 100 µM (inactive) each time. Also, the GI50 in the assay with MDA-MB-435, with RPMI-8226, with SF-295, in the assay with UACC-62 and in the assay with HCC 2998 was > 100 µM (inactive) each time.
In the case of `COc1ccc(CCN(C)C(=O)CC(C#N)(c2ccccc2)c2ccc(OC)c(OC)c2)cc1OC` (centres undefined), the GI50 in the assay on DU-145 was > 100 µM (inactive); in the assay with IGROV-1, > 100 µM (inactive); in the assay on NCI-H23 it was > 100 µM (inactive); in the assay on MOLT-4 it was > 45.9 µM (inactive); with U-251 it was > 100 µM (inactive); in the assay with OVCAR-5, > 100 µM (inactive). Besides, the GI50 was > 100 µM (inactive) in the assay with 786-0; > 74.6 µM (inactive) in the assay with UO-31; > 100 µM (inactive) in the assay on T47D; > 100 µM (inactive) with M14; > 100 µM (inactive) with Malme-3M; > 100 µM (inactive) in the assay on NCI/ADR-RES. Besides, the GI50 with LOX IMVI was > 100 µM (inactive); with MDA-MB-435, > 100 µM (inactive); with HL-60 it was > 100 µM (inactive); in the assay on RPMI-8226 it was > 46.9 µM (inactive); in the assay on SF-295 it was > 100 µM (inactive); with UACC-62 it was > 100 µM (inactive).
In the case of `O=C1CCCCC(=O)OC2(CCCCC2=O)CC1` (centres undefined), the GI50 in the assay on DU-145, in the assay with IGROV-1, with NCI-H23, with MOLT-4, with U-251 and with OVCAR-5 was > 100 µM (inactive) in each case. Moreover, the GI50 in the assay on 786-0, in the assay with UO-31, with T47D, in the assay on M14, in the assay with Malme-3M and in the assay with NCI/ADR-RES was > 100 µM (inactive) throughout. Besides, the GI50 with MDA-MB-435, with RPMI-8226, in the assay on SF-295, with UACC-62 and in the assay with HCC 2998 was > 100 µM (inactive) in each case.
For the compound `c1cc2c(c(NC3=NCCO3)c1)CCC2`, the GI50 in the assay with DU-145, with IGROV-1, in the assay with NCI-H23, in the assay with MOLT-4, in the assay with U-251 and in the assay on OVCAR-5 was > 100 µM (inactive) each time. The GI50 in the assay on 786-0, in the assay on UO-31, in the assay on T47D, in the assay with M14, in the assay on Malme-3M and with NCI/ADR-RES was > 100 µM (inactive) in each case. For the same compound, the GI50 is > 100 µM (inactive) in the assay on LOX IMVI; 85.7 µM (inactive) with MDA-MB-435; 60.1 µM (inactive) in the assay with HL-60; > 100 µM (inactive) in the assay on RPMI-8226; > 100 µM (inactive) in the assay on SF-295; > 100 µM (inactive) in the assay with UACC-62.

For the origin of these results see ChEMBL document CHEMBL1201862, “PubChem BioAssay data set” (2004).
